Experiments:
[1] = Further trial, calf milk replacer without psyllium, with or without sorbitol: weight gain, CMR consumption, starter intake, feed:gain; format: in vivo, Holstein bull calves; details: 6 g per day of sorbitol
Excerpt: (§1) A further trial was ran to determine what effect sorbitol without a dietary fiber would have on calves fed an intensified diet of calf milk replacer. Forty-six three to ten day old Holstein bull calves weighing approximately 90 to 100 pounds were fed an intensified diet of calf milk replacer. Twenty-four calves were fed a calf milk replacer without psyllium and without sorbitol and twenty-two calves were fed calf milk replacer without psyllium but with sorbitol. […] were fed 6 grams each per day of sorbitol. Data for parameters presented in the Tables above was analyzed using the general linear model (GLM) statistical procedure of SAS™. Statistical analysis software for a randomized complete block design that included both the particular feed regimen and the week of the test period in the model statement. The SAS™ statistical analysis software is available from SAS Institute, Inc. of Cary, N.C. Additionally, all data was analyzed to determine the mean of the data for each variable under consideration during the collection period for the particular data. Additionally, the PDiff function of the GLM statistical procedure was used to characterize the mean values of the data by providing for comparisons between mean data values for the calves of different treatments for particular test parameters or variables.

Holstein bull calves [2] = experiment: Further trial, calf milk replacer without psyllium, with or without sorbitol: scour score and scour days; format: in vivo; details: 6 g of sorbitol per day
Excerpt: as §1

Holstein bull calves [3] = experiment: Further trial, calf milk replacer without psyllium, with or without sorbitol: respiratory scores; format: in vivo; details: 6 g per day of sorbitol; no psyllium
Excerpt: as §1

Holstein bull calves [4] = experiment: Further trial, calf milk replacer without psyllium, with or without sorbitol: weaning scores; format: in vivo; details: 6 g per day of sorbitol; no psyllium
Excerpt: as §1

OC[C@@H](O)[C@@H](O)[C@H](O)[C@@H](O)CO [sorbitol]
difference in average feed:gain (feed efficiency) vs calves fed no sorbitol [1]: no statistically significant difference | difference in calf milk replacer consumption vs calves fed no sorbitol [1]: no statistically significant difference | difference in starter feed intake vs calves fed no sorbitol [1]: no statistically significant difference | difference in total weight gain vs calves fed no sorbitol [1]: no statistically significant difference | difference in scour score vs calves fed no sorbitol (Holstein bull calves [2]): no statistically significant different | difference in scoured days vs calves fed no sorbitol (Holstein bull calves [2]): no statistically significant different | difference in respiratory scores vs calves not fed any sorbitol (Holstein bull calves [3]): no statistically significant difference | difference in weaning scores vs calves not fed any sorbitol (Holstein bull calves [4]): no statistically significant difference
